Structures are written as SMILES. Converted amounts (≈) assume the structure as drawn. Bounds are passed on as bounds.

Data set [1] concerns NCI-H460. The experiment in a line: Antiproliferative activity against human NCI-H460 cells in presence of O2. It counts as functional, cell-based.
For data set [2], the system named is NCI-H460. Briefly: Antiproliferative activity against human NCI-H460 cells in presence of N2. Format: functional, cell-based.
Data set [3] relates to HT-29. The experiment in a line: Cytotoxicity against human HT-29 cells. Format: functional, cell-based.
A further data set relates to SK-OV-3. Briefly: Cytotoxicity against human SKOV3 cells. Format: functional, cell-based.
The subject of data set [4] is NCI-H460. The experiment in a line: Antiproliferative activity against human NCI-H460 cells. It counts as functional, cell-based.
Data set [5] relates to NCI-H460. The experiment in a line: Cytotoxicity against human NCI-H460 cells assessed as reduction in cell viability after 2 hrs by Alamar blue assay. Format: functional, cell-based. As to conditions: NCI-H460, 2 h.
Data set [6] deals with HT-29. The experiment in a line: Cytotoxicity against human HT-29 cells assessed as reduction in cell viability after 2 hrs by Alamar blue assay. It counts as functional, cell-based. As to conditions: HT-29, 2 h.
Data set [7] addresses T1, Oxygen-insensitive NAD(P)H nitroreductase (Escherichia coli K-12, UniProt P38489).
T1 sequence (P38489 whole entry): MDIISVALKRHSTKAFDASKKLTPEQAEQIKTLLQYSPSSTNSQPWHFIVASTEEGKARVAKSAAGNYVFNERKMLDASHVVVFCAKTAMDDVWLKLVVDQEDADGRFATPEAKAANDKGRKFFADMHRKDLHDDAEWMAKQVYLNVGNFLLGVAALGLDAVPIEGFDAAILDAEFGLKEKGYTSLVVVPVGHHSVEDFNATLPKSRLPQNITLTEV
The experiment in a line: Susbtrate activity at Escherichia coli nitroreductase assessed as half life. Format: ADME.

For data set [8], the system named is Mycobacterium tuberculosis. The experiment in a line: Antitubercular activity against Mycobacterium tuberculosis. It counts as functional.
Data set [9] deals with Mycobacterium tuberculosis. Briefly: Antitubercular activity against drug-sensitive Mycobacterium tuberculosis. It counts as functional.
The test system of data set [10] is Hep 3B2. Briefly: Cytotoxicity against human Hep3B cells after 24 hrs under hypoxic condition by MTS assay. It counts as functional, cell-based.
Data set [11] has as its system Hep 3B2. The experiment in a line: Cytotoxicity against human Hep3B cells after 24 hrs by MTS assay. Format: functional, cell-based.
Data set [12] has as its system NCI-H460. The experiment in a line: Cytotoxicity against human NCI-H460 cells assessed as reduction in cell viability after 2 hrs under normoxic conditions by Alamar blue assay. It counts as functional, cell-based. As to conditions: NCI-H460, 2 h.
The subject of data set [13] is NCI-H460. Briefly: Cytotoxicity against human NCI-H460 cells assessed as reduction in cell viability after 2 hrs under hypoxic conditions by Alamar blue assay. It counts as functional, cell-based. As to conditions: NCI-H460, 2 h.
Data set [14] is described as follows: Cytotoxicity against human MiaPaCa cells assessed as reduction in cell viability after 2 hrs by Alamar blue assay. Format: functional, cell-based. The note with it: MIA PaCa-2, 2 h.
The target of data set [15] is Epidermal growth factor receptor (Homo sapiens, UniProt P00533). Briefly: Inhibition of erbB1 (unknown origin) using FRET-capable peptide substrate by FRET assay.
The subject of data set [16] is NCI-H460. The experiment in a line: Ratio of IC50 for antiproliferative activity against human NCI-H460 cells in presence of O2 to antiproliferative activity against human NCI-H460 cells in presence of N2. Format: functional.

Chain of Epidermal growth factor receptor (P00533 whole entry): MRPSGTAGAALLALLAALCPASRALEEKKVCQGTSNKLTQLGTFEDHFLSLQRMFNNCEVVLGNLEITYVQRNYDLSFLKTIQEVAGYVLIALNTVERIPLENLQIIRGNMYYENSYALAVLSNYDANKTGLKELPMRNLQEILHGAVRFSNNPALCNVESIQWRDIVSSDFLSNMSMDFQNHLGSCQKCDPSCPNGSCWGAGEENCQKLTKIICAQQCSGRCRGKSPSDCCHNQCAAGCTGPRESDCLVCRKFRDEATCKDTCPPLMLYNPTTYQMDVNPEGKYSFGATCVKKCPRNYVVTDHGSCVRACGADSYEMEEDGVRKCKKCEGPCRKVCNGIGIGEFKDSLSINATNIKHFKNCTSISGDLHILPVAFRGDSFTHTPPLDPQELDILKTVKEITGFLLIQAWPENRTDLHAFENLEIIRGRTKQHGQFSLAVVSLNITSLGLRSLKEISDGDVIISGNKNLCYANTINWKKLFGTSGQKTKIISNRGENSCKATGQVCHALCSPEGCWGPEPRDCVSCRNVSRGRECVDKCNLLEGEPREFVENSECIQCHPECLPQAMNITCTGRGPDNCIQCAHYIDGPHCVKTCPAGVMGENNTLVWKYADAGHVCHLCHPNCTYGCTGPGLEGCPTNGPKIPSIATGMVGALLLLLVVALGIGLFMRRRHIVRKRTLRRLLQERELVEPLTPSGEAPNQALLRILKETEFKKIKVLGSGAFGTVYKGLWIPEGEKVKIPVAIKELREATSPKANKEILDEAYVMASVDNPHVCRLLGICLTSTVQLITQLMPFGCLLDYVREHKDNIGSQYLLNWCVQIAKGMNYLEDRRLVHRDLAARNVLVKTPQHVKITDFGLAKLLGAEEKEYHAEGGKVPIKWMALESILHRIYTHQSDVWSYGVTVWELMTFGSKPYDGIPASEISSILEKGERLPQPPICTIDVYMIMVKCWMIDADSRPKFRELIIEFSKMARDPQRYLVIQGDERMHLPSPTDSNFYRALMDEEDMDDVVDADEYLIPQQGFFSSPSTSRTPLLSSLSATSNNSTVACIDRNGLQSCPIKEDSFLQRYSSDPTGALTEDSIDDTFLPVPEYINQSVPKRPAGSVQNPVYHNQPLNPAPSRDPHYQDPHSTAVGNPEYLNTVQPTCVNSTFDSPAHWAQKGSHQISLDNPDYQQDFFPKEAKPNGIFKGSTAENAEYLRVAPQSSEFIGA

As to `NC(=O)c1cc(N2CC2)ncc1[N+](=O)[O-]`, the IC50 in the data set on NCI-H460 [1] amounted to 19600 nM; in the data set on NCI-H460 [2], 1100 nM.

`COc1cc2cc(C(=O)N3CC(CCl)c4c3cc([N+](=O)[O-])c3c(C(C)=O)cccc43)[nH]c2c(OC)c1OC` (configuration not stated): the 50% inhibitory concentration (IC50) came out at 680 nM in the data set with HT-29 [3] and 500 nM with SK-OV-3.

As for `Cn1c(COP(=O)(N(CCCl)CCCl)N(CCCl)CCCl)ccc1[N+](=O)[O-]`, the IC50 in the data set with NCI-H460 [1] was 850 nM; in the data set on NCI-H460 [4], more than 1000 nM; in the data set on NCI-H460 [2], 7 nM.

As for `CC(OP(=O)(NCCBr)NCCBr)c1ccc([N+](=O)[O-])s1` (configuration not stated), the figures for the IC50 in the data set on NCI-H460 [1], in the data set on NCI-H460 [4] and in the data set with NCI-H460 [2] were 200 nM, 500 nM and 30 nM, respectively.

Take `CC#Cc1c(OC)ccc2c(C(=O)c3cc(OC)c(OC)c(OC)c3)nn(C[N+](C)(C)Cc3c(-c4ccc(Br)o4)nc([N+](=O)[O-])n3C)c12`: the concentration for half-maximal inhibition (IC50) in the data set on NCI-H460 [5] is 18 nM; in the data set on HT-29 [6], 17 nM.

Regarding `O=[N+]([O-])c1ccc2c(c1)NP(=O)(N(CCCl)CCCl)NC2` (configuration not stated), the half-life in data set [7] came out at 7.8 min.

For the molecule `CC#Cc1c(OC)ccc2c(C(=O)c3cc(OC)c(OC)c(OC)c3)nn(Cn3cc[n+](Cc4ccc([N+](=O)[O-])o4)c3)c12`, the results for the half-maximal inhibitory concentration (IC50) with NCI-H460 [5] and in the data set with HT-29 [6] were 14 nM and 1 nM, respectively.

For `[O-]/[N+](O)=C1/CN2C[C@H](OCc3ccc(OC(F)(F)F)cc3)COC2=N1`, the minimal inhibitory concentration (MIC) is less than 2.8 µM in data set [8] and 0.039 to 0.531 µg/mL (≈ 0.108 to 1.47 µM) in [9].

With `COc1ccc(C[C@@H](C)[C@@H](C)Cc2ccc(OCCOCCOCCOCCn3ccnc3[N+](=O)[O-])c(OC)c2)cc1OC`, the half-maximal inhibitory concentration (IC50) in the data set with Hep 3B2 [10] and in the data set on Hep 3B2 [11] was 13400 nM each time.

Consider `COc1cccc2c1C(=O)c1c(O)c3c(c(O)c1C2=O)C[C@@](O)(C(C)=O)C[C@@H]3O[C@H]1C[C@H](NCCCCn2ccnc2[N+](=O)[O-])[C@H](O)[C@H](C)O1`, for which the IC50 in the data set on NCI-H460 [12] came out at 5700 nM; with NCI-H460 [13], 4 nM.

As to `CC#Cc1c(OC)ccc2c(C(=O)c3cc(OC)c(OC)c(OC)c3)nn(C[N+](C)(C)Cc3c(-c4ccc(F)cc4)nc([N+](=O)[O-])n3C)c12`, the IC50 came out at 31 nM in the data set on NCI-H460 [5], 25 nM in data set [14] and 25 nM in the data set on HT-29 [6].

For the molecule `COc1ccc(C[C@@H](C)[C@@H](C)Cc2ccc(OCCOCCOCCOCCn3cnc([N+](=O)[O-])c3)c(OC)c2)cc1OC`, the concentration for half-maximal inhibition (IC50) was 52100 nM in the data set with Hep 3B2 [10] and 12500 nM in the data set with Hep 3B2 [11].

With `Cn1ncc([N+](=O)[O-])c1C[N+](C)(C)C/C=C/C(=O)Nc1ccc2ncnc(Nc3cccc(Br)c3)c2c1`, in data set [15], the IC50 is 0.22 to 0.56 nM.

`NC(=O)c1cc([N+](=O)[O-])cnc1N1CC1`: the IC50 was determined as 198000 nM in the data set on NCI-H460 [1] and 9300 nM with NCI-H460 [2]. The “Ratio IC50” value in the data set with NCI-H460 [16] was found to be 21.3.

Regarding `CC(=O)c1ccc2c([N+](=O)[O-])cc3c(c2c1)C(CCl)CN3C(=O)c1cc2cc(OCCN(C)C)ccc2[nH]1` (configuration not stated), the concentration for half-maximal inhibition (IC50) was determined as 150 nM in the data set on HT-29 [3] and 210 nM in the data set with SK-OV-3.

For the molecule `NC(=O)c1ccnc(N2CC2)c1[N+](=O)[O-]`, the IC50 in the data set with NCI-H460 [1] was found to be 142000 nM; with NCI-H460 [2], 2700 nM. Moreover, in the data set with NCI-H460 [16], the “Ratio IC50” value came out at 52.5.

In the case of `Cc1cc(COP(N)(=O)N(CCCl)CCCl)ccc1[N+](=O)[O-]` (configuration not stated), in the data set with SK-OV-3, the half-maximal inhibitory concentration (IC50) worked out at 3300 nM.

`NP(=O)(OCc1ccc([N+](=O)[O-])cc1)N(CCCl)CCCl` (configuration not stated): in the data set with SK-OV-3, the half-maximal inhibitory concentration (IC50) came to 1100 nM.

Molecule `C[N+](C)(C/C=C/C(=O)Nc1ccc2ncnc(Nc3cccc(Br)c3)c2c1)Cc1ccc([N+](=O)[O-])cc1` registered a concentration for half-maximal inhibition (IC50) in data set [15] of 0.22 to 0.56 nM.

As to `Cn1cc([N+](=O)[O-])nc1C[N+](C)(C)C/C=C/C(=O)Nc1ccc2ncnc(Nc3cccc(Br)c3)c2c1`, in data set [15], the IC50 lay in the range of 0.22 to 0.56 nM.

In the case of `CN(C)CCOc1ccc2[nH]c(C(=O)N3CC(CCl)c4c3cc([N+](=O)[O-])c3c(C#N)cccc43)cc2c1` (configuration not stated), the IC50 was 120 nM in the data set on HT-29 [3] and 170 nM in the data set with SK-OV-3.

With `COc1cccc2c1C(=O)c1c(O)c3c(c(O)c1C2=O)C[C@@](O)(C(C)=O)C[C@@H]3O[C@H]1C[C@H](N(COCCn2ccnc2[N+](=O)[O-])COCCn2ccnc2[N+](=O)[O-])[C@H](O)[C@H](C)O1`, the IC50 in the data set on NCI-H460 [12] came to 20000 nM; in the data set on NCI-H460 [13], 50 nM.

Regarding `FC(F)(F)Oc1ccc(CO[C@@H]2COc3nccn3C2)cc1`, the results for the MIC in data set [8] and in data set [9] were less than 2.8 µM and 0.039 to 0.531 µg/mL (≈ 0.124 to 1.69 µM), respectively.

Take `COc1cccc2c1C(=O)c1c(O)c3c(c(O)c1C2=O)C[C@@](O)(C(C)=O)C[C@@H]3O[C@H]1C[C@H](n2ccnc2[N+](=O)[O-])[C@H](O)[C@H](C)O1`: the half-inhibitory concentration (IC50) was 2300 nM with NCI-H460 [12] and 12 nM with NCI-H460 [13].

The record behind these values is ChEMBL document CHEMBL4316582, “Nitro-Group-Containing Drugs” (J Med Chem, 2019).
